Reference: patent publication US12428406B2 (PMV Pharmaceuticals, Inc., priority 2019, dated 2025)

Target: T1, p53 Y220C (Homo sapiens, UniProt P04637, Y220C)
T1 construct: The recombinant protein was a truncation mutant containing only amino acids 94-312 of p53; made in house; host or cells: E. coli
Test: In vitro DNA binding activity assay (HTRF / TR-FRET): stabilization of p53 Y220C and increase of its DNA binding activity
Format: biochemical
Settings: recombinant His-tagged p53 Y220C DNA binding domain (aa 94-312), biotin-labeled consensus DNA, incubated at 27° C. or 29° C. for 60 min
Summary of the method: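 Test compounds, diluted 3-fold in DMSO from 4.5 mM stocks, were incubated with bacterially expressed His-tagged p53 Y220C at room temperature for 15 min, and after a further step for 20 min. DNA binding was detected by time-resolved FRET between APC and europium labels. SC150 marks the concentration increasing binding by 50%.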

T1 sequence (P04637 94-312, change not shown): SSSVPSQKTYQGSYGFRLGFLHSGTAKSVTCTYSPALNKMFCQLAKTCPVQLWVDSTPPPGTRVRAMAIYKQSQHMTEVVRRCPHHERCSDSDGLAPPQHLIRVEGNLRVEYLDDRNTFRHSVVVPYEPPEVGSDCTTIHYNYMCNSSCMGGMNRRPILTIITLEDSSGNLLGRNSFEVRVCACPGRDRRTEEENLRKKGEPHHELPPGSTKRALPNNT

Row | Structure (SMILES) | SC150 (concentration of the compound required to increase the DNA binding activity by 50%)
1 | COCC(O)CN1CCC(Nc2cccc3c2cc(C#CCOc2ccc(S(C)(=O)=O)cc2N)n3CC(F)(F)F)CC1 (stereo not shown) [Compound 646A, 1-[4-((2-[3-(2-amino-4-methanesulfonylphenoxy)prop-1-yn-1-yl]-1-(2,2,2-trifluoroethyl)-1H-indol-4-yl}amino)piperidin-1-yl]-3-methoxypropan-2-ol] | + (+ = 0 μM ≤ SC150 < 0.05 μM)
2 | COCCN(C)S(=O)(=O)c1ccc(NCC#Cc2cc3c(NC4CCN(C)CC4)cccc3n2CC(F)(F)F)c(OC)c1 [Compound 477A, 3-methoxy-N-(2-methoxyethyl)-N-methyl-4-[(3-{4-[(1-methylpiperidin-4-yl)amino]-1-(2,2,2-trifluoroethyl)-1H-indol-2-yl}prop-2-yn-1-yl)amino]benzene-1-sulfonamide] | + (+ = 0 μM ≤ SC150 < 0.05 μM)
3 | CNC(=O)c1ccc(NCC#Cc2cc3c(N[C@H]4CC[C@H](N5CCC(OC)C5)CC4)cccc3n2CC(F)(F)F)c(OC)c1 (stereo partly drawn) [Compound 428A, 3-methoxy-N-methyl-4-{[3-(4-{[(1R,4R)-4-(3-methoxypyrrolidin-1-yl)cyclohexyl]amino}-1-(2,2,2-trifluoroethyl)-1H-indol-2-yl)prop-2-yn-1-yl]amino}benzamide] | + (+ = 0 μM ≤ SC150 < 0.05 μM)
4 | COc1cc(C(=O)O)ccc1NCC#Cc1cc2c(N[C@@H]3CCN(CCO)C[C@@H]3F)cccc2n1CC(F)(F)F [Compound 908A, 4-{[3-(4-{[(3S,4R)-3-fluoro-1-(2-hydroxyethyl)piperidin-4-yl]amino}-1-(2,2,2-trifluoroethyl)-1H-indol-2-yl)prop-2-yn-1-yl]amino}-3-methoxybenzoic acid] | + (+ = 0 μM ≤ SC150 < 0.05 μM)
5 | CNC(=O)c1ccc(NCC#Cc2cc3c(N[C@H]4CC[C@H](N5CC6(COC6)C5)CC4)cccc3n2CC(F)(F)F)c(OCCF)c1 [Compound 240A, 3-(2-fluoroethoxy)-N-methyl-4-{[3-(4-{[(1R,4R)-4-{2-oxa-6-azaspiro[3.3]heptan-6-yl}cyclohexyl]amino}-1-(2,2,2-trifluoroethyl)-1H-indol-2-yl)prop-2-yn-1-yl]amino}benzamide] | + (+ = 0 μM ≤ SC150 < 0.05 μM)
6 | CCOC(=O)c1ccc(NCC#Cc2cc3c(N[C@@H]4CCN(C)C[C@@H]4F)cccc3n2CC(F)(F)F)c(OC)c1 [Compound 839A, Ethyl 4-((3-(4-(((3S,4R)-3-fluoro-1-methylpiperidin-4-yl)amino)-1-(2,2,2-trifluoroethyl)-1H-indol-2-yl)prop-2-yn-1-yl)amino)-3-methoxybenzoate] | + (+ = 0 μM ≤ SC150 < 0.05 μM)
7 | CN1CCC(Nc2cccc3c2cc(C#CCNc2ccc(S(C)(=O)=O)cc2O)n3CC(F)(F)F)CC1 [Compound 486A, 5-methanesulfonyl-2-[(3-{4-[(1-methylpiperidin-4-yl)amino]-1-(2,2,2-trifluoroethyl)-1H-indol-2-yl}prop-2-yn-1-yl)amino]phenol] | + (+ = 0 μM ≤ SC150 < 0.05 μM)
8 | CNS(=O)(=O)c1ccc(NCC#Cc2cc3c(N[C@H]4CC[C@H](N5CC6(CCOCC6)C5)CC4)cccc3n2CC(F)(F)F)c(OC)c1 [Compound 327A, 4-((3-(4-(((1R,4R)-4-(7-oxa-2-azaspiro[3.5]nonan-2-yl)cyclohexyl)amino)-1-(2,2,2-trifluoroethyl)-1H-indol-2-yl)prop-2-yn-1-yl)amino)-3-methoxy-N-methyl-benzenesulfonamide] | + (+ = 0 μM ≤ SC150 < 0.05 μM)
9 | COCC(O)CN1CCC(Nc2cccc3c2cc(C#CCNc2ccc(C(F)(F)F)cc2OC)n3CC(F)(F)F)CC1 (stereo not shown) [Compound 689A, 1-methoxy-3-(4-{[2-(3-{[2-methoxy-4-(trifluoromethyl)phenyl]amino}prop-1-yn-1-yl)-1-(2,2,2-trifluoroethyl)-1H-indol-4-yl]amino}piperidin-1-yl)propan-2-ol] | +++ (+++ = 0.1 μM ≤ SC150 < 0.2 μM)
10 | CNC(=O)c1ccc(NCC#Cc2cc3c(N[C@H]4CC[C@H](N(C)C)CC4)cccc3n2CC(F)(F)F)c(OCF)c1 [Compound 106A, 3-(fluoromethoxy)-N-methyl-4-{[3-(4-{[(1R,4R)-4-(dimethyl-amino)cyclohexyl]amino}-1-(2,2,2-trifluoro-ethyl)-1H-indol-2-yl)prop-2-yn-1-yl]amino}benzamide] | + (+ = 0 μM ≤ SC150 < 0.05 μM)
11 | CNC(=O)c1ccc(NCC#Cc2cc3c(N[C@H]4CC[C@H](N5CCCC(OC)C5)CC4)cccc3n2CC(F)(F)F)c(OC)c1 (stereo partly drawn) [Compound 356A, 3-methoxy-N-methyl-4-{[3-(4-{[(1R,4R)-4-(3-methoxypiperidin-1-yl)cyclohexyl]amino}-1-(2,2,2-trifluoroethyl)-1H-indol-2-yl)prop-2-yn-1-yl]amino} benzamide] | + (+ = 0 μM ≤ SC150 < 0.05 μM)
12 | COc1cc(S(=O)(=O)NC2CCOCC2)ccc1NCC#Cc1cc2c(NC3CCN(C)CC3)cccc2n1CC(F)(F)F [Compound 470A, 3-methoxy-4-[(3-{4-[(1-methylpiperidin-4-yl)amino]-1-(2,2,2-trifluoroethyl)-1H-indol-2-yl}prop-2-yn-1-yl)amino]-N-(oxan-4-yl)benzene-1-sulfonamide] | + (+ = 0 μM ≤ SC150 < 0.05 μM)
13 | COc1cc(S(C)(=O)=O)ccc1NCC#Cc1cc2c(NC3CCN(C(=O)C(C)O)CC3)cccc2n1CC(F)(F)F (stereo not shown) [Compound 742A] | + (+ = 0 μM ≤ SC150 < 0.05 μM)
14 | CNC(=O)c1ccc(NCC#Cc2cc3c(N[C@H]4CC[C@H](N(C)C)CC4)cccc3n2CC(F)(F)F)c(OCCOC)c1 [Compound 103A, 3-(2-methoxyethoxy)-N-methyl-4-{[3-(4-{[(1R,4R)-4-(dimethylamino)cyclo-hexyl]amino}-1-(2,2,2-trifluoroethyl)-1H-indol-2-yl)prop-2-yn-1-yl]amino}benzamide] | + (+ = 0 μM ≤ SC150 < 0.05 μM)
15 | CCC(=O)NS(=O)(=O)c1ccc(NCC#Cc2cc3c(N[C@H]4CC[C@H](N(C)C)CC4)cccc3n2CC(F)(F)F)c(OC)c1 [Compound 85A, N-(3-methoxy-4-{[3-(4-{[(1R,4R)-4-(dimethylamino)cyclohexyl]amino}-1-(2,2,2-trifluoroethyl)-1H-indol-2-yl)prop-2-yn-1-yl]amino}benzenesulfonyl)propanamide] | + (+ = 0 μM ≤ SC150 < 0.05 μM)
16 | CS(=O)(=O)c1ccc(NCC#Cc2cc3c(N[C@H]4CC[C@H](N5CCOCC5)CC4)cccc3n2CC(F)(F)F)c(OCC#N)c1 [Compound 185A, 2-(5-methanesulfonyl-2-{[3-(4-{[(1R,4R)-4-(morpholin-4-yl)cyclohexyl]amino}-1-(2,2,2-trifluoroethyl)-1H-indol-2-yl)prop-2-yn-1-yl]amino}phenoxy)acetonitrile] | + (+ = 0 μM ≤ SC150 < 0.05 μM)
17 | COc1cc(S(=O)(=O)N2CCN(C(C)=O)CC2)ccc1NCC#Cc1cc2c(NC3CCOCC3)cccc2n1CC(F)(F)F [Compound 1001A, 1-(4-{3-methoxy-4-[(3-{4-[(oxan-4-yl)amino]-1-(2,2,2-trifluoroethyl)-1H-indol-2-yl}prop-2-yn-1-yl)amino]benzenesulfonyl}piperazin-1-yl)ethan-1-one] | + (+ = 0 μM ≤ SC150 < 0.05 μM)
18 | CN1CCC(Nc2cccc3c2cc(C#CCNC(=O)c2cccnc2)n3CC(F)(F)F)CC1 [Compound 505A, N-(3-{4-[(1-methylpiperidin-4-yl)amino]-1-(2,2,2-trifluoroethyl)-1H-indol-2-yl}prop-2-yn-1-yl)pyridine-3-carboxamide] | +++ (+++ = 0.1 μM ≤ SC150 < 0.2 μM)
19 | CNc1cc(S(C)(=O)=O)ccc1OCC#Cc1cc2c(N[C@H]3CC[C@H](N(C)C)CC3)cccc2n1CC(F)(F)F [Compound 109A, (1R,4R)-N^4-(2-{3-[4-methanesulfonyl-2-(methylamino)phenoxy]prop-1-yn-1-yl}-1-(2,2,2-trifluoroethyl)-1H-indol-4-yl)-N^1,N^1-dimethylcyclohexane-1,4-diamine] | + (+ = 0 μM ≤ SC150 < 0.05 μM)
20 | CCOc1cc(S(C)(=O)=O)ccc1NCC#Cc1cc2c(NC3CCN(CC(O)COC)CC3)cccc2n1CC(F)(F)F (stereo not shown) [Compound 631A, 1-{4-[(2-{3-[(2-ethoxy-4-methanesulfonylphenyl)amino]prop-1-yn-1-yl}-1-(2,2,2-trifluoroethyl)-1H-indol-4-yl)amino]piperidin-1-yl}-3-methoxypropan-2-ol] | + (+ = 0 μM ≤ SC150 < 0.05 μM)
21 | COc1cc(C(=O)N(C)C)ccc1NCC#Cc1cc2c(N[C@H]3CCN(C)C[C@H]3F)cccc2n1CC(F)(F)F (racemic) [Compound 815A, rac-4-{[3-(4-{[(3R,4S)-3-fluoro-1-methylpiperidin-4-yl]amino}-1-(2,2,2-trifluoroethyl)-1H-indol-2-yl)prop-2-yn-1-yl]amino}-3-methoxy-N,N-dimethylbenzamide] | + (+ = 0 μM ≤ SC150 < 0.05 μM)
22 | CNC(=O)c1ccc(NCC#Cc2cc3c(N[C@H]4CC[C@@H](N(C)C)CC4)cccc3n2CC(F)(F)F)c(OCCOC)c1 [Compound 99A, 3-(2-methoxyethoxy)-N-methyl-4-{[3-(4-{[(1S,4S)-4-(dimethyl-amino)cyclohexyl]amino}-1-(2,2,2-trifluoroethyl)-1H-indol-2-yl)prop-2-yn-1-yl]amino}benzamide] | + (+ = 0 μM ≤ SC150 < 0.05 μM)
